MIC data for five molecules are collected here from ChEMBL document CHEMBL4831518, “Structure-aided optimization of non-nucleoside M. tuberculosis thymidylate kinase inhibitors” (Eur J Med Chem, 2021).

The structures appear in SMILES notation. In brackets after ≈: the same amount, converted by molar mass.

The first assay concerns Mycobacterium tuberculosis. In words: Antibacterial activity against Mycobacterium tuberculosis H37Rv harboring Tap deletion mutant assessed as inhibition of bacterial growth incubated for 6 hrs by microdilution assay. It is filed as functional. In general terms: Broth dilution looks for growth in wells or tubes with falling amounts of substance.
Regarding `COc1ccc(Oc2cccc(CN3CCC(n4cc(C)c(=O)[nH]c4=O)CC3)c2)cc1`, the MIC (as a rule, the smallest concentration in the dilution series that meets the test's criterion for growth inhibition) is 31.25 µg/mL (≈ 74.1 µM).
Still for that read-out and setting: the result for `Cc1ccc(Oc2cccc(CN3CCC(n4cc(C)c(=O)[nH]c4=O)CC3)c2)cc1` reads 15.6 µg/mL (≈ 38.5 µM); that for `Cc1cn(C2CCN(Cc3cccc(Oc4ccccc4)n3)CC2)c(=O)[nH]c1=O`, more than 250 µg/mL.
The same measure, in the same setting: the result for `Cc1cn(C2CCN(Cc3ccnc(Oc4cccc(Cl)c4)c3)CC2)c(=O)[nH]c1=O` reads 31.25 µg/mL (≈ 73.2 µM); that for `Cc1cn(C2CCN(Cc3cccc(Oc4cc(Cl)cc(Cl)c4)c3)CC2)c(=O)[nH]c1=O`, 15.6 µg/mL (≈ 33.9 µM).

In a further assay the test system is Mycobacterium tuberculosis. The assay can be described thus: Antibacterial activity against Mycobacterium tuberculosis H37Rv harboring mmr deletion mutant assessed as inhibition of bacterial growth incubated for 6 hrs by microdilution assay. It is filed as functional.
For `COc1ccc(Oc2cccc(CN3CCC(n4cc(C)c(=O)[nH]c4=O)CC3)c2)cc1`, the MIC worked out at 15.6 µg/mL (≈ 37 µM).
On the same count and under the same terms, the result for `Cc1ccc(Oc2cccc(CN3CCC(n4cc(C)c(=O)[nH]c4=O)CC3)c2)cc1` reads 15.6 µg/mL (≈ 38.5 µM); that for `Cc1cn(C2CCN(Cc3cccc(Oc4ccccc4)n3)CC2)c(=O)[nH]c1=O`, more than 250 µg/mL.
Turning to `Cc1cn(C2CCN(Cc3ccnc(Oc4cccc(Cl)c4)c3)CC2)c(=O)[nH]c1=O`, the MIC is 31.25 µg/mL (≈ 73.2 µM).
Same read-out and setting: the result for `Cc1cn(C2CCN(Cc3cccc(Oc4cc(Cl)cc(Cl)c4)c3)CC2)c(=O)[nH]c1=O` reads 15.6 µg/mL (≈ 33.9 µM).
